Reference: publication PMC7948422, “Repurposing p97 inhibitors for chemical modulation of the bacterial ClpB–DnaK bichaperone system” (The Journal of Biological Chemistry, 2020)
“Also recorded” adds a separate entry of the source.

Legend:
[1] = test system: ClpB W462F, W543F, W462F/W543F; test: Basal ATPase activity of ClpB Trp/Phe variants; type: biochemical, Escherichia coli; settings: absence of casein
Protocol: To determine the ATPase activity, ClpB was diluted to 28 μg/ml (49-nM hexamer) in buffer C (50-mM Tris-HCl, pH 7.4, 20-mM MgCl2, 1-mM EDTA, 0.5-mM tris(2-carboxyethyl)phosphine [TCEP]). In some experiments, the ClpB solution was supplemented with 17.4 μg/ml (10 μM) κ-casein. The ClpB aliquots (18 μl) were mixed with 1 μl of the investigated compounds at different concentrations in 100% DMSO or with DMSO as a control. A sample without ClpB was used as a baseline control. After a 10-min preincubation at 37 or 45 °C, the ATP hydrolysis reaction was initiated by adding 1 μl of 100-mM ATP. The samples were incubated for 60 min (basal ClpB activity in the absence of κ-casein) or 15 min (in the presence of κ-casein) at 37 °C or 30 min at 45 °C in the absence of casein. For the E678Q ClpB variant, the incubation time in the presence of κ-casein was 60 min. After incubation, 15 μl of each sample was mixed with 200 μl of the ammonium molybdate/malachite green reagent ([67]) dispensed into a 96-well plate, followed by an addition of 30 μl of 34% sodium citrate ([68]). The plate was agitated inside a Synergy H1 reader (BioTek, Winooski, VT) for 15 min at room temperature, and the samples’ absorbance was measured at 630 nm. The readouts for ClpB-containing samples were corrected for absorbance of samples without ClpB, to account for nonenzymatic production of inorganic phosphate. […]

ClpB W462F = biological target: T1, ClpB W462F (Escherichia coli, UniProt P63284, W462F); test: Surface plasmon resonance, immobilized ClpB W462F; type: binding
T1 construct: made in house
T1 sequence (P63284 whole entry W462F, looked up): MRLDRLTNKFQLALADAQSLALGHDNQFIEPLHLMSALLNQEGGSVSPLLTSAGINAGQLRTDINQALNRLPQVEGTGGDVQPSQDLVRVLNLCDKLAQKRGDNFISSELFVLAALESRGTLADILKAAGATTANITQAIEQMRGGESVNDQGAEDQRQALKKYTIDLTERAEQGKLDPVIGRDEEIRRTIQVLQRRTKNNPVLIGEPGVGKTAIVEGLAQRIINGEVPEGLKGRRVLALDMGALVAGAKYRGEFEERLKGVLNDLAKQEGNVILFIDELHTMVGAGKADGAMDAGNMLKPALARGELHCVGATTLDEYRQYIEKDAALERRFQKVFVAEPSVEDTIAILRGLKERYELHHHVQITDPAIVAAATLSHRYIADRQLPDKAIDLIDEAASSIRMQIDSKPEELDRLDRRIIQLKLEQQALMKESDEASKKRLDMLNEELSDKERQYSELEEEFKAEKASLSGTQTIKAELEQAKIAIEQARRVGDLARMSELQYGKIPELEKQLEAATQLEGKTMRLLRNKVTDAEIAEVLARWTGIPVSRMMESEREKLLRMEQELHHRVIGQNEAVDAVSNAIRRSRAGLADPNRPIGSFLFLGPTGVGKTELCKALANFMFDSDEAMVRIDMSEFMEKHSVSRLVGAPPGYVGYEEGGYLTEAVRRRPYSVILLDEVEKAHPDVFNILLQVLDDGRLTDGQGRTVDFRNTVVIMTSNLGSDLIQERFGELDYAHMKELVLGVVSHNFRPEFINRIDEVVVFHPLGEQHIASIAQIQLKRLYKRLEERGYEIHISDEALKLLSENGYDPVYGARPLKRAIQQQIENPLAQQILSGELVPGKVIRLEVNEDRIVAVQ
Protocol: ClpB, DnaK, and the NBD of DnaK were extensively dialyzed against the SPR buffer (20-mM Hepes, pH 7.4, 150-mM NaCl, 20-mM MgCl2, 1-mM EDTA, 1-mM DTT). After dialysis, the protein concentration was determined by the Bradford method. The DBeQ–protein interactions were studied using a Biacore T200 instrument (GE Healthcare) at 25 °C. The proteins were diluted to 300 μg/ml in 10-mM sodium acetate buffer (pH 5 for ClpB DnaK or pH 4 for NBD) and immobilized on HC1500M sensor chips (Xantec) by standard amine coupling chemistry as described previously ([70]). A reference flow cell was created by ethyl(dimethylaminopropyl) carbodiimide/N-hydroxysuccinimide activation followed by quenching with 1 M ethanolamine (pH 9.0). Solvent correction curves were obtained at the beginning and end and after every 50 injection cycles by injecting varying DMSO concentrations (4.0, 4.4, 4.6, 4.8, 5.0, 5.2, 5.4, and 5.9% [v/v]). All experiments were performed using a flow rate of 30 μl/min.
Binding isotherms were obtained with the ligand diluted to different concentrations in the SPR running buffer HBSMTD (20-mM Hepes, pH 7.4, 140-mM NaCl, 20-mM MgCl2, 5% (v/v) DMSO, 0.005% (v/v) Tween-20). Replicate injections were performed for all samples, and a buffer-only injection was performed for every 12 injection cycles. To test the structural integrity of ClpB after immobilization on the sensor chips, we performed control titrations with ATPγS and adenosine. The dissociation constants determined from those experiments were ∼20 μM for ATPγS and ∼2 mM for adenosine. […] Moreover, the immobilized ClpB discriminated between a nucleotide analog and a nucleoside, which indicated an adequate structural integrity of ClpB on the sensor chips.
The resulting sensorgrams were analyzed using Biacore T200 Evaluation Software v3.0 according to the following procedure. Solvent correction curves were generated and applied to all data sets, and all sensorgrams were double-referenced by subtracting the most recent buffer blank injection. […]

firefly luciferase = firefly luciferase (Photinus pyralis, UniProt P08659); test: Native firefly luciferase activity; type: biochemical; settings: 100 µM compound
Sequence of firefly luciferase (P08659 whole entry): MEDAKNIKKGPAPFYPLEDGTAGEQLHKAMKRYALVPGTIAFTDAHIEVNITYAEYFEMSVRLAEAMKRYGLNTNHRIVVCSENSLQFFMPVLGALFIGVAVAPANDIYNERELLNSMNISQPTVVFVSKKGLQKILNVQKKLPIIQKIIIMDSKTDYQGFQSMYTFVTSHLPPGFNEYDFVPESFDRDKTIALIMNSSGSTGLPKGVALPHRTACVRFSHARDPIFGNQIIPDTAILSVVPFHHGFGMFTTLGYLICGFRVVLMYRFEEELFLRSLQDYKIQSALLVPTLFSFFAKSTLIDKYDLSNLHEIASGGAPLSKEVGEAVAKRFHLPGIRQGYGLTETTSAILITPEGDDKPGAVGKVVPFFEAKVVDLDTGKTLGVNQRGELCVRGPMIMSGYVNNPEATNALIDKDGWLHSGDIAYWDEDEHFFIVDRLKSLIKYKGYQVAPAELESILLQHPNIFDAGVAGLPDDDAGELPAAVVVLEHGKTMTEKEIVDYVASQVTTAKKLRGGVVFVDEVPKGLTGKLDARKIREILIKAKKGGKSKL

E. coli MC4100 = test: Bacterial growth and viability, E. coli MC4100; type: cell-based, Escherichia coli
Protocol: E. coli MC4100, MC4100ΔclpB, dnaK103, and dnaK756 strains were used to determine an influence of DBeQ on bacterial growth and viability. Bacteria were maintained in the LB media, and in the case of the MC4100ΔclpB strain, LB was supplemented with 30 μg/ml kanamycin. All experiments were initiated by preparing overnight cultures inoculated from single colonies and grown at 37 °C. The dnaK103 and dnaK756 overnight cultures were grown at 30 °C. On the following day, the cultures were diluted 100-fold in 10 ml of LB without antibiotics and incubated at 37 °C. The culture optical density was monitored at 600 nm. When absorbance at 600 nm reached 0.4, the culture was divided into 1-ml aliquots and supplemented with 10 μl of DMSO or different concentrations of DBeQ in DMSO. The samples were immediately transferred into an incubator/shaker at temperature 37, 45, or 50 °C. Bacteria were cultured for up to 4 h with shaking (200 RPM). At specific time points, 100 μl of each culture was withdrawn and serially diluted in sterile 0.9% NaCl up to 10^6-fold dilution. To estimate the number of viable cells, 5 μl or 10 μl of the diluted cultures was spread on the LB-agar plate without an antibiotic. After a complete adsorption of liquid on the LB-agar surface, the plates were incubated overnight at 37 °C. On the following day, the bacterial colonies were counted and the colony-forming units/ml were calculated.

**Q.** c1ccc(CNc2nc(NCc3ccccc3)c3ccccc3n2)cc1 [DBeQ, N^2,N^4-dibenzylquinazoline-2,4-diamine] was tested. Which “inhibition of basal ATPase of Trp/Phe ClpB variants” value [1] did it give?
**A.** became sensitive to inhibition

**Q.** What about the Kd (ClpB W462F) of the same compound?
**A.** 61.4 ± 4.7 µM

**Q.** And the “Bmax (SPR signal at saturation), ClpB W462F” value (ClpB W462F; SPR)?
**A.** 1.08 ± 0.03

**Q.** What about the “Hill coefficient, ClpB W462F” value (ClpB W462F; SPR) of the same compound?
**A.** 2.4 ± 0.4

**Q.** And the “effect on native luciferase activity” value (firefly luciferase)?
**A.** not affected

**Q.** What about the “effect on growth of E. coli” value (E. coli MC4100; MC4100, 37 °C) of the same compound?
**A.** suppressed the growth; also recorded: inhibited the growth

**Q.** And the “effect on viability of E. coli under heat shock” value (E. coli MC4100; MC4100, 45 °C)?
**A.** exacerbated by heat shock; also recorded: strongly inhibited

**Q.** And the “effect on viability of E. coli at severe heat shock” value (E. coli MC4100; MC4100, 50 °C)?
**A.** lost viability at the lowest DBeQ concentrations tested
